The values that follow come from ChEMBL document CHEMBL1148081, “Corticatic acids A-C, antifungal acetylenic acids from the marine sponge, Petrosia corticata” (J Nat Prod, 1994).

Calls of active or inactive are those of the source. The rule behind the calls is not given here.

For the assay, the system named is Umbelopsis ramanniana. Kind of assay: Antimicrobial activity against Mortierella ramanniana. It is filed as functional, organism-based.

`C#CC(O)/C=C/CCCCCC#CC/C=C\CCCCCCCCCCC/C=C/C#CC(=O)O` (configuration not stated): the result was Active.

On to `C#CC(O)/C=C/CCCCCC#CC/C=C\CCCCCCCCCCC/C=C\C#CC(=O)O` (configuration not stated), for which the outcome was Active.
